According to the RepoRT retention time repository (doi:10.1021/acs.analchem.1c00972):

Assays:
[1] = RP, Waters ACQUITY UPLC BEH C18, 100 × 1 mm, 1.7 µm, 50 °C, 0.3 mL/min, estimated dead time 0.17 min; A: water + 0.1% formic acid + 20 mM ammonium formate; B: methanol + 0.1% formic acid + 20 mM ammonium formate; gradient (min/%B) 0/0 15/100 21/100 22/0 30/0; settings: stereoisomer not certain
[2] = RP, Waters ACQUITY UPLC BEH C18, 100 × 1 mm, 1.7 µm, 50 °C, 0.3 mL/min, estimated dead time 0.17 min; A: water + 10 mM ammonium bicarbonate; B: 10% water + 90% methanol + 10 mM ammonium bicarbonate; gradient (min/%B) 0/0 15/100 21/100 22/0 30/0; settings: stereoisomer not certain

Compound | LC retention time [1] [min] | LC retention time [2] [min]
Cc1ccc(NC(=O)c2ccc(CN3CCN(C)CC3)cc2)cc1Nc1nccc(-c2cccnc2)n1 [Imatinib] | 11.2 | 13.9
CC(C)C1(C)N=C(c2ncccc2C(=O)O)NC1=O (configuration not stated) [Imazapyr] | 8.89 | 5.24
CC(C)C1(C)N=C(c2nc3ccccc3cc2C(=O)O)NC1=O (configuration not stated) [Imazaquin] | 11.8 | 9.01
CCc1cnc(C2=NC(C)(C(C)C)C(=O)N2)c(C(=O)O)c1 (configuration not stated) [Imazethapyr] | 11.2 | 8
O=[N+]([O-])N=C1NCCN1Cc1ccc(Cl)nc1 [Imidacloprid] | 8.69 | 8.74
CC(C)=CCOc1c2occc2cc2ccc(=O)oc12 [Imperatorin] | 14.3 | 14.6
O=C(Nc1ccc(Cl)cc1C(O)c1ccccc1)c1ccncc1 (configuration not stated) [Inabenfide] | 13.9 | 14.2
CC(O)C(=O)Nc1c(I)c(C(=O)NC(CO)CO)c(I)c(C(=O)NC(CO)CO)c1I (configuration not stated) [Iopamidol] | 3.66 | 3.64
Cc1ccc(C(C)NC(=O)C(NC(=O)OC(C)C)C(C)C)cc1 (configuration not stated) [Iprovalicarb] | 14.8 | 15.1
CC1=CC(=O)CC(C)(C)C1 [Isophorone] | 11.7 | 11.9
CNC(=O)Oc1ccccc1C(C)C [Isoprocarb] | 12.9 | 13.1
CCC(C)(CC)c1cc(NC(=O)c2c(OC)cccc2OC)on1 [Isoxaben] | 14.4 | 14.6
CCOC(=O)C1=NOC(c2ccccc2)(c2ccccc2)C1 [Isoxadifen-ethyl] | 15.4 | 15.7
CCC(C)C1OC2(CCC1C)CC1CC(CC=C(C)C(OC3CC(OC)C(OC4CC(OC)C(O)C(C)O4)C(C)O3)C(C)C=CC=C3COC4C(O)C(C)=CC(C(=O)O1)C34O)O2 (configuration not stated) [Ivermectin B1a] | 18.8 | 19.3
CC1CC2(OC2C)C(=O)OC2CC[N+]3([O-])CC=C(COC(=O)C1(C)O)C23 (configuration not stated) [Jacobine N-oxide] | 6.84 | 7.35
CC1CC2(OC2C)C(=O)OC2CCN3CC=C(COC(=O)C1(C)O)C23 (configuration not stated) [Jacobine] | 6.52 | 10.1
CC1=C2C(=O)C3C(CC=C4CC(O)CCC43C)C2CCC12OC1CC(C)CNC1C2C (configuration not stated) [Jervine] | 11.7 | 15.2
O=c1c(O)c(-c2ccc(O)cc2)oc2cc(O)cc(O)c12 [Kaempferol] | 12.3 | 10.1
CNC1(c2ccccc2Cl)CCCCC1=O (configuration not stated) [Ketamine] | 8.96 | 13.5
CC(=O)N1CCN(c2ccc(OCC3COC(Cn4ccnc4)(c4ccc(Cl)cc4Cl)O3)cc2)CC1 (configuration not stated) [Ketoconazole] | 13.3 | 16.1
CN1CCC(=C2c3ccccc3CC(=O)c3sccc32)CC1 [Ketotifen] | 10.4 | 14.7
CON=C(C(=O)OC)c1ccccc1COc1ccccc1C [Kresoxim-methyl] | 15.4 | 15.8

Compound | LC retention time [1] [min] | LC retention time [2] [min]
[NH3+][C@@H](Cc1cc(I)c(Oc2cc(I)c(O)c(I)c2)c(I)c1)C(=O)[O-] [L-thyroxine] | 14.1 | 12.9
CC(CCc1ccccc1)NCC(O)c1ccc(O)c(C(N)=O)c1 (configuration not stated) [Labetalol] | 10.6 | 12.8
N=c1nc(N)c(-c2cccc(Cl)c2Cl)nn1O [Lamotrigin-N2-Oxid] | 9.42 | 9.15
CC=C(C)C(=O)OC1CC[N+]2([O-])CC=C(COC(=O)C(O)(C(C)OC)C(C)(C)O)C12 (configuration not stated) [Lasiocarpine N-oxide] | 11 | 11.7
CC=C(C)C(=O)OC1CCN2CC=C(COC(=O)C(O)(C(C)OC)C(C)(C)O)C12 (configuration not stated) [Lasiocarpine] | 10.4 | 13.9
C=C1CCC2C(C=C(C)C(=O)C3(O)CC(C)C(O)C3C1O)C2(C)C (configuration not stated) [Lathyrol] | 14.7 | 15
CCCCCCCCCCCC(=O)NCC(C)O (configuration not stated) [Lauric isopropanolamide] | 16.7 | 17.1
CCCCCCCCCCCC(=O)N(CCO)CCO [Lauryl diethanolamide] | 16.4 | 16.8
c1ccc(C2CN3CCSC3=N2)cc1 (configuration not stated) [Levamisole] | 6.7 | 11.8
CC(=O)NCC1CN(c2ccc(N3CCOCC3)c(F)c2)C(=O)O1 (configuration not stated) [Linezolid] | 9.9 | 10
CN(C)C(=O)C(CCN1CCC(O)(c2ccc(Cl)cc2)CC1)(c1ccccc1)c1ccccc1 [Loperamide] | 13.7 | 16.3
O=C1Nc2ccc(Cl)cc2C(c2ccccc2Cl)=NC1O (configuration not stated) [Lorazepam] | 13.2 | 13.5
CCC(C)C(=O)OC1CC(C)C=C2C=CC(C)C(CCC3CC(O)CC(=O)O3)C21 (configuration not stated) [Lovastatin] | 16.8 | 17.2
OC1C=C2CCN3Cc4cc5c(cc4C(C1O)C23)OCO5 (configuration not stated) [Lycorine] | 4.33 | 9.11
CNCCCC12CCC(c3ccccc31)c1ccccc12 [Maprotiline] | 12.8 | 15.4
O=C1CCCC2C3CCCN4CCCC(CN12)C34 (configuration not stated) [Matrine] | 5.2 | 13
COC(=O)Nc1nc2ccc(C(=O)c3ccccc3)cc2[nH]1 [Mebendazole] | 12.5 | 12.9
CCN(CCCCOC(=O)c1ccc(OC)c(OC)c1)C(C)Cc1ccc(OC)cc1 (configuration not stated) [Mebeverine] | 12.1 | 17.1
CN1CCN=C(c2ccccc2)c2cc(Cl)ccc21 [Medazepam] | 11.4 | 16.4
CC(=O)C1(O)CCC2C3CC(C)C4=CC(=O)CCC4(C)C3CCC21C (configuration not stated) [Medroxyprogesterone] | 15.2 | 15.5
CC(=O)OC1(C(C)=O)CCC2C3CC(C)C4=CC(=O)CCC4(C)C3CCC21C (configuration not stated) [Medroxyprogesteroneacetate] | 15.4 | 15.8
CN(C(=O)COc1nc2ccccc2s1)c1ccccc1 [Mefenacet] | 14.6 | 14.9

Compound | LC retention time [1] [min] | LC retention time [2] [min]
CC(=O)OC1(C(C)=O)CCC2C3C=C(C)C4=CC(=O)CCC4(C)C3CCC21C (configuration not stated) [Megestrol-17-acetate] | 15.3 | 15.6
CC1CCN(CCCC(=O)c2ccc(F)cc2)CC1 [Melperon] | 10 | 15.4
CC12CC3CC(C)(C1)CC(N)(C3)C2 [Memantine] | 11.9 | 13.7
CCOC(=O)C1(c2ccccc2)CCN(C)CC1 [Meperidine] | 9.63 | 14.2
Cc1cccc(C)c1NC(=O)C1CCCCN1C (configuration not stated) [Mepivacaine] | 8.36 | 13.1
CNC(=O)N(C)c1nc2ccccc2s1 [Methabenzthiazuron] | 12.7 | 13
CCC(=O)C(CC(C)N(C)C)(c1ccccc1)c1ccccc1 (configuration not stated) [Methadone] | 13.1 | 18.2
Cn1cc[nH]c1=S [Methimazol] | 2.75 | 2.82
CNC(=O)Oc1cc(C)c(S(C)(=O)=O)c(C)c1 [Methiocarb sulfone] | 9.58 | 9.75
COc1ccccc1OCC(O)COC(N)=O (configuration not stated) [Methocarbamol] | 9.52 | 9.71
COCCCNc1nc(NC(C)C)nc(SC)n1 [Methoprothryne] | 13.1 | 14.2
CN(Cc1cnc2nc(N)nc(N)c2n1)c1ccc(C(=O)NC(CCC(=O)O)C(=O)O)cc1 (configuration not stated) [Methotrexate] | 7.89 | 6.74
CN1C(=O)CC(C)(c2ccccc2)C1=O (configuration not stated) [Methsuximide] | 11.2 | 11.4
CCc1cccc(C)c1N1C(=O)COCC1C (configuration not stated) [Metolachlor-morpholinone] | 12.6 | 12.9
COCCc1ccc(OCC(O)CNC(C)C)cc1 (configuration not stated) [Metoprolol] | 9.58 | 12.4
COc1cc(OC)n2nc(S(=O)(=O)Nc3c(Cl)ccc(C)c3Cl)nc2n1 [Metosulam] | 12 | 10.9
COc1ccc(NC(=O)N(C)C)cc1Cl [Metoxuron] | 10.6 | 10.7
COc1cc(C)c(C(=O)c2c(OC)ccc(Br)c2C)c(OC)c1OC [Metrafenone] | 16 | 16.4
CNC(=O)Oc1cc(C)c(N(C)C)c(C)c1 [Mexacarbate] | 8.62 | 14.8
Clc1ccc(COC(Cn2ccnc2)c2ccc(Cl)cc2Cl)c(Cl)c1 (configuration not stated) [Miconazole] | 15.7 | 18
Cc1ncc2n1-c1ccc(Cl)cc1C(c1ccccc1F)=NC2 [Midazolam] | 11.4 | 14.6
CN1CCN2c3ncccc3Cc3ccccc3C2C1 (configuration not stated) [Mirtazapine] | 9.7 | 14.9
